Where a name gives a salt, the structure may show the parent alone.
Assays:
[1] = tested on: release of TNF α from THP-1 cells; test: Inhibitory activity of TNF α release from THP-1 cells (LPS, ELISA); format: cell-based; conditions: 3 hr, 37° C., TNF α by ELISA
Experimental: The inhibitory effect of each compound (compounds of Examples 1, 2, 3, 6, 35, 39 and 44) on the release of TNF α from THP-1 cells which are monocyte cultured cells [see Nature 370, 218-220 (1994)] was investigated.
The THP-1 cells were suspended to a concentration of 1×10 ^6 cells/ml in RPMI1640 medium supplemented with 10% fetal calf serum (FCS) and dispensed by 100 μl. A 2 μg/ml LPS was prepared with RPMI1640 medium supplemented with 10% FCS. Each compound (dissolved in dimethyl sulfoxide) was diluted 500-fold with the LPS solution.
The diluted solutions of these compounds were added to the dispensed cell suspensions by 100 μl and allowed for 3 hr to react under the conditions of 37° C., 5% CO2. After the completion of the reaction, the reaction mixture was centrifuged and the culture supernatant was collected. The TNF α amount was quantitatively measured by ELISA (enzyme-linked immunosorbent assay). The TNF α release inhibitory effect by each compound was calculated from the proportion of released TNF α amount of the compound addition group relative to that of the compound non-addition group.

[2] = Solubility in saline (0.9% aqueous sodium chloride solution) at 25° C.; format: physicochemical; conditions: for solubility: saline or isotonic
Experimental: The solubility of the Example compounds of the present invention in saline (0.9% aqueous sodium chloride solution) at 25° C. was measured.

[3] = tested on: release of TNF α from LPS treated human whole blood; test: Inhibitory activity of TNF α release from LPS treated human whole blood (ELISA); format: cell-based; conditions: LPS treated human whole blood diluted 4-fold, 24 hr, 37° C., TNF α by ELISA
Experimental: The inhibitory effect of each compound (compounds of Examples 2, 6, 7, 10, 11, 37, 147, 231 and 245) on the release of TNF α from LPS treated human whole blood [see: Lymphokine Res 8, 141-146 (1989)] was investigated.
Human whole blood was diluted 4-fold with RPMI1640 medium supplemented with 10% FCS. The diluted blood was dispensed to a 96 multi-well plate by 100 μl and equilibrated under the conditions of 37° C., 5% CO2. LPS (2 μg/ml) was prepared with RPMI1640 medium supplemented with 10% FCS and a culture broth prepared by dissolving each compound (dissolved in dimethyl sulfoxide) in the LPS solution was added by 100 μl/well (final concentrated of dimethyl sulfoxide 0.1%), which was followed by incubation for 24 hr (37° C., 5% CO2). After the incubation, the reaction mixture was centrifuged (1,500 rpm, 5 min). The culture supernatant (40 μl/well) was collected, and TNF α amount in the supernatant was quantitatively measured by ELISA. The TNF α release inhibitory effect by each compound was calculated from the proportion of release TNF α amount of the compound addition group relitive to that of the compound non-addition group.

What does the source list for `CC(C)C[C@@H](C(=O)N[C@H](C(=O)c1ccc(OCCN(C)C)cc1)C(C)(C)C)C(CN1C(=O)c2ccccc2C1=O)C(=O)NO.Cl` (single isomer, unassigned) [Example 39, 3(R)-[2,2-Dimethyl-1(S)-[4-(2-dimethylaminoethoxy)benzoyl]]propylcarbamoyl-5-methyl-2(R or S)-phthalimidomethylhexanohydroxamic Acid Hydrochloride]?
IC50 [1]: 300 nM; Solubility, saline [2]: >20 mg/mL

For `CC(C)C[C@@H](C(=O)N[C@@H](Cc1ccc(S(=O)(=O)[O-])cc1)C(=O)c1ccco1)C(Cc1cccc2ccccc12)C(=O)NO.[Na+]` (single isomer, unassigned) [Example 8, Sodium Salt of 3(R)-[1(S)-(2-Furyl)carbonyl-2-(4-sulfophenyl)ethylcarbamoyl]-5-methyl-2(R or S)-(1-naphthylmethyl)hexanohydroxamic Acid], which solubility [2] is on record?
The solubility was greater than 20 mg/mL.

For `CC(C)C[C@@H](C(=O)N[C@@H](Cc1ccc(S(=O)(=O)[O-])cc1)C(=O)c1ccco1)C(CN1Cc2ccccc2C1=O)C(=O)NO.[Na+]` (single isomer, unassigned) [Example 11, Sodium Salt of 3(R)-[1(S)-(2-Furyl)carbonyl-2-(4-sulfophenyl)ethylcarbamoyl]-5-methyl-2(R or S)-(1-oxoisoindolin-2-ylmethyl)hexanohydroxamic Acid], which IC50 [3] is on record?
The IC50 was 1730 nM.

And the solubility [2]?
Its solubility is greater than 20 mg/mL.

Which IC50 [3] does the source give for `CC(C)C[C@@H](C(=O)N[C@@H](Cc1ccccc1)C(=O)c1ccc(CO)o1)C(CN1C(=O)N(C)C(C)(C)C1=O)C(=O)NO` (single isomer, unassigned) [Example 245, 3(R)-[1(S)-[2-(5-Hydroxymethyl)furyl]carbonyl-2-phenyl]ethylcarbamoyl-5-methyl-2(R or S)-(2,5-dioxo-3,4,4-trimethyl-1-imidazolidinyl)methylhexanohydroxamic Acid] here?
Its IC50 is 3740 nM.

Which results are given for `CC(C)C[C@@H](C(=O)N[C@@H](Cc1ccc(S(=O)(=O)[O-])cc1)C(=O)c1ccco1)C(Cc1ccc2ccccc2c1)C(=O)NO.[Na+]` (single isomer, unassigned) [Example 7, Sodium Salt of 3(R)-[1(S)-(2-Furyl)carbonyl-2-(4-sulfophenyl)ethylcarbamoyl]-5-methyl-2(R or S)-(2-naphthylmethyl)hexanohydroxamic Acid]?
IC50 [3]: 2460 nM; solubility [2]: > 20 mg/mL

Which IC50 ([1]; Homo sapiens) does the source give for `CC(C)C[C@@H](C(=O)N[C@@H](Cc1ccccc1)C(=O)c1ccc(OCCN2CCN(C)CC2)cc1)C(CN1C(=O)c2ccccc2C1=O)C(=O)NO` (single isomer, unassigned) [Example 1, 5-Methyl-3(R)-[1(S)-[4-[2-[1-(4-methyl)piperazinyl]ethoxy]benzoyl]-2-phenyl]ethylcarbamoyl-2(R or S)-phthalimidomethylhexanohydroxamic Acid Dihydrochloride] here?
Its IC50 is 270 nM.

And the solubility [2]?
The solubility was greater than 10 mg/mL.

For `CC(C)C[C@@H](C(=O)N[C@@H](Cc1ccccc1)C(=O)c1ccc(OCCN(C)C)cc1)C(CN1C(=O)c2ccccc2C1=O)C(=O)NO.Cl` (single isomer, unassigned) [Example 2, 3(R)-[1(S)-[4-(2-Dimethylaminoethoxy)benzoyl]-2-phenyl]ethylcarbamoyl-5-methyl-2(R or S)-phthalimidomethylhexanohydroxamic Acid Hydrochloride], which IC50 ([1]; Homo sapiens) is on record?
Its IC50 is 200 nM.

What about the IC50 [3] of the same compound?
The IC50 was 650 nM.

And the solubility [2]?
Its solubility is greater than 5 mg/mL.

Which solubility [2] does the source give for `CC(C)C[C@@H](C(=O)N[C@@H](Cc1ccc(OCCN(C)C)cc1)C(=O)c1ccco1)C(CN1C(=O)N(C)C(C)(C)C1=O)C(=O)NO.Cl` (single isomer, unassigned) [Example 5, 3(R)-[2-[4-(2-Dimethylaminoethoxy)phenyl]-1(S)-(2-furyl)carbonyl]ethylcarbamoyl-5-methyl-2(R or S)-(2,5-dioxo-3,4,4-trimethyl-1-imidazolidinyl)methylhexanohydroxamic Acid Hydrochloride] here?
Its solubility is greater than 20 mg/mL.

With `CC(C)C[C@@H](C(=O)N[C@H](C(=O)c1ccc(OCCN(C)C)cc1)C(C)(C)C)C(CCCc1ccccc1)C(=O)NO.Cl` (single isomer, unassigned) [Example 88, 3(R)-[2,2-dimethyl-1(S)-[4-(2-dimethylaminoethoxy)benzoyl]]propylcarbamoyl-5-methyl-2(R or S)-(3-phenylpropyl)hexanohydroxamic acid hydrochloride] as the compound, how does the “Solubility, saline” value [2] read?
The value was 5 mg/mL.

What does the source list for `CC(C)C[C@@H](C(=O)N[C@@H](Cc1ccccc1)C(=O)c1ccc(OCCN(C)C)cc1)C(CCCc1ccccc1)C(=O)NO.Cl` (single isomer, unassigned) [Example 35, 3(R)-[1(S)-[4-(2-Dimethylaminoethoxy)benzoyl]-2-phenyl]ethylcarbamoyl-5-methyl-2(R or S)-(3-phenylpropyl)hexanohydroxamic Acid Hydrochloride]?
IC50 [1]: 140 nM; Solubility, saline [2]: >20 mg/mL

What does the source list for `CC(C)C[C@@H](C(=O)N[C@H](C(=O)c1ccc(OCCN(C)C)cc1)C(C)(C)C)C(CN1C(=O)N(C)C(C)(C)C1=O)C(=O)NO.Cl` (single isomer, unassigned) [Example 147, 3(R)-[2,2-Dimethyl-1(S)-[4-(2-dimethylaminoethoxy)benzoyl]]propylcarbamoyl-5-methyl-2(R or S)-(2,5-dioxo-3,4,4-trimethyl-1-imidazolidinyl)methylhexanohydroxamic Acid Hydrochloride]?
IC50 [3]: 2290 nM; Solubility, saline [2]: >20 mg/mL

For `CC(C)C[C@@H](C(=O)N[C@@H](Cc1ccc(NC(=N)N)cc1)C(=O)c1ccco1)C(CN1C(=O)c2ccccc2C1=O)C(=O)NO` (single isomer, unassigned) [Example 3, 3(R)-[1(S)-(2-Furyl)carbonyl-2-(4-guanidinophenyl)]ethylcarbamoyl-5-methyl-2(R or S)-phthalimidomethylhexanohydroxamic Acid Hydrochloride], which IC50 ([1]; Homo sapiens) is on record?
Its IC50 is 190 nM.

For `CC(C)C[C@@H](C(=O)N[C@@H](Cc1ccc(S(=O)(=O)[O-])cc1)C(=O)c1ccco1)C(CN1C(=O)c2ccccc2C1=O)C(=O)NO.[Na+]` (single isomer, unassigned) [Example 10, Sodium Salt of 3(R)-[1(S)-(2-Furyl)carbonyl-2-(4-sulfophenyl)ethylcarbamoyl]-5-methyl-2(R or S)-phthalimidomethylhexanohydroxamic Acid], which IC50 [3] is on record?
The IC50 was 1700 nM.

And the solubility [2]?
The solubility was 10 mg/mL.

Which solubility [2] does the source give for `CC(C)C[C@@H](C(=O)N[C@@H](Cc1ccc(S(=O)(=O)[O-])cc1)C(=O)c1ccco1)C(Cc1ccccc1)C(=O)NO.[Na+]` (single isomer, unassigned) [Example 9, Sodium Salt of 2(R or S)-Benzyl-3(R)-[1(S)-(2-furyl)carbonyl-2-(4-sulfophenyl)ethylcarbamoyl]-5-methylhexanohydroxamic Acid] here?
Its solubility is greater than 20 mg/mL.

For `CC(C)C[C@@H](C(=O)N[C@@H](Cc1ccc(OCCN(C)C)cc1)C(=O)c1ccco1)C(CCCc1ccccc1)C(=O)NO` (single isomer, unassigned) [Example 44, 3(R)-[2-[4-(2-dimethylaminoethoxy)phenyl]-1(S)-(2-furyl)carbonyl]ethylcarbamoyl-5-methyl-2(R or S)-(3-phenylpropyl)hexanohydroxamic acid hydrochloride], which IC50 [1] is on record?
Its IC50 is 420 nM.

With `CC(C)C[C@@H](C(=O)N[C@@H](Cc1ccccc1)C(=O)c1ccc(OCCN(C)C)cc1)C(CN1C(=O)N(C)C(C)(C)C1=O)C(=O)NO.Cl` (single isomer, unassigned) [Example 37, 3(R)-[1(S)-[4-(2-Dimethylaminoethoxy)benzoyl]-2-phenyl]ethylcarbamoyl-5-methyl-2(R or S)-(2,5-dioxo-3,4,4-trimethyl-1-imidazolidinyl)methylhexanohydroxamic Acid Hydrochloride] as the compound, how does the IC50 [3] read?
The IC50 was 3470 nM.

And the “Solubility, saline” value [2]?
The value was greater than 20 mg/mL.

Which “Solubility, saline” value [2] does the source give for `CC(C)C[C@@H](C(=O)N[C@@H](Cc1ccc(OS(=O)(=O)[O-])cc1)C(=O)c1ccco1)C(CN1C(=O)N(C)C(C)(C)C1=O)C(=O)NO.[Na+]` (single isomer, unassigned) [Example 84, Sodium Salt of 3(R)-[1(S)-(2-Furyl)carbonyl-2-[4-(hydroxysulfonyloxy)phenyl]]ethylcarbamoyl-5-methyl-2(R or S)-(2,5-dioxo-3,4,4-trimethyl-1-imidazolidinyl)methylhexanohydroxamic Acid] here?
The value was greater than 20 mg/mL.

Source: US6610729B1, “Hydroxamic acid derivatives and medicinal utilization thereof” (Mitsubishi Pharma Corporation, priority 1998, dated 2003)
